Experimental data published in patent US4753925A, “Antibacterial 1,7-diamino-1,4-dihydro-4-oxo-3-quinolinecarboxylic acids” (Bayer Aktiengesellschaft, priority 1984, dated 1988).
In brackets after ≈: the same amount, converted by molar mass.

Assays:
E. coli 455/7 = test: MIC, agar dilution test/Isosensitest medium; type: cell-based; settings: Escherichia coli, agar dilution test, Isosensitest medium
Text: (§1) In most cases the values are identical, but for some strains they are about 2-4 times better.
(§2) Agar dilution test/Isosensitest medium

E. coli A 261 = test: MIC, agar dilution test/Isosensitest medium; type: cell-based; settings: Escherichia coli, A261, agar dilution test, Isosensitest medium
Text: as §1, §2

Klebsiella 57 USA = test: MIC, agar dilution test/Isosensitest medium; type: cell-based; settings: agar dilution test, Isosensitest medium
Text: as §1, §2

Klebsiella 6179 = test: MIC, agar dilution test/Isosensitest medium; type: cell-based; settings: agar dilution test, Isosensitest medium
Text: as §1, §2

Proteus mir. 8175 = test: MIC, agar dilution test/Isosensitest medium; type: cell-based; settings: agar dilution test, Isosensitest medium
Text: as §1, §2

Proteus mir. 8223 = test: MIC, agar dilution test/Isosensitest medium; type: cell-based; settings: agar dilution test, Isosensitest medium
Text: as §1, §2

Providencia 12052 = test: MIC, agar dilution test/Isosensitest medium; type: cell-based; settings: agar dilution test, Isosensitest medium
Text: as §1, §2

Pseudomonas W. = test: MIC, agar dilution test/Isosensitest medium; type: cell-based; settings: agar dilution test, Isosensitest medium
Text: as §1, §2

[1] = Serum levels in mice after oral administration; type: in vivo; settings: mouse, 5 mg/kg, read-out: Serum level; for concentration at 0.25 h: 15'; for concentration at 0.5 h: 30'
Text: as §1
Serum levels in mice after oral administration

[2] = Serum levels in mice following subcutaneous administration; type: in vivo; settings: mouse, sc, 5 mg/kg, read-out: Serum level; for concentration at 0.25 h: 15'; for concentration at 0.5 h: 30'
Protocol: as §1
Serum levels in mice following subcutaneous
administration of 5 mg/kg

strains of Table 1 = test: MIC comparison over the strains of Table 1; type: cell-based; settings: versus II
Text: as §1, §2

[3] = Pharmacokinetics in mice following oral and parenteral administration; type: in vivo; settings: versus II
Text: as §1

Compound | MIC (E. coli 455/7) [µg/mL] | MIC (E. coli A 261) [µg/mL] | MIC (Klebsiella 57 USA) [µg/mL] | MIC (Klebsiella 6179) [µg/mL] | MIC (Proteus mir. 8175) [µg/mL] | MIC (Proteus mir. 8223) [µg/mL] | MIC (Providencia 12052) [µg/mL] | MIC (Pseudomonas W.) [µg/mL] | concentration at 0.25 h [1] [ng/mL] | concentration at 0.5 h [1] [ng/mL] | concentration at 1 h [1] [ng/mL] | concentration at 2 h [1] [ng/mL] | concentration at 0.25 h [2] [ng/mL] | concentration at 0.5 h [2] [ng/mL] | concentration at 1 h [2] [ng/mL] | concentration at 2 h [2] [ng/mL] | MIC values compared with II: times better (strains of Table 1; for some strains) | MIC values compared with II (strains of Table 1; in most cases) | Bioavailability compared with the comparison product ([3]; following oral and parenteral administration) | Serum levels compared with the comparison product ([3]; mice, oral and parenteral)
CNn1cc(C(=O)O)c(=O)c2cc(F)c(N3CCN(C)CC3)c(F)c21 [Example 3] | 8 (≈ 22.7 µM) | 0.06 (≈ 0.17 µM) | 0.125 (≈ 0.355 µM) | 0.125 (≈ 0.355 µM) | 0.25 (≈ 0.71 µM) | 4 (≈ 11.4 µM) | 4 (≈ 11.4 µM) | 1 (≈ 2.84 µM) | 900 | 1200 | 600 | 250 | 1200 | 1400 | 920 | 300 | 2-4 times | identical | better bioavailability | higher serum levels
CNn1cc(C(=O)O)c(=O)c2cc(F)c(N3CCN(C)CC3)cc21 [II, reference compound] | 8 (≈ 23.9 µM) | 0.06 (≈ 0.179 µM) | 0.25 (≈ 0.748 µM) | 0.25 (≈ 0.748 µM) | 0.125 (≈ 0.374 µM) | 4 (≈ 12 µM) | 16 (≈ 47.9 µM) | 1 (≈ 2.99 µM) | 700 | 580 | 320 | 100 | 840 | 1300 | 450 | 100 | – | – | – | –
